Results from ChEMBL document CHEMBL5550154, “Novel biaryloxazolidinone derivatives with broad-spectrum antibacterial activity, favorable drug-like profiles and in vivo efficacy against linezolid-resistant Staphylococcusaureus” (Eur J Med Chem, 2024).
Values after ≈ are worked out from the molar mass of the structure shown.

Legend:
Staphylococcus aureus [1] = experiment: Antibacterial activity against Staphylococcus aureus ATCC29213 assessed as inhibition of bacterial growth incubated for 16 to 20 hrs by CLSI based broth liquid microdilution method; format: functional; conditions: time 16-20 hrs
Staphylococcus aureus [2] = experiment: Antibacterial activity against methicillin-resistant Staphylococcus aureus assessed as inhibition of bacterial growth incubated for 16 to 20 hrs by CLSI based broth liquid microdilution method; format: functional; conditions: time 16-20 hrs
Staphylococcus aureus [3] = experiment: Antibacterial activity against methicillin-sensitive Staphylococcus aureus assessed as inhibition of bacterial growth incubated for 16 to 20 hrs by CLSI based broth liquid microdilution method; format: functional; conditions: time 16-20 hrs
Staphylococcus aureus [4] = experiment: Antibacterial activity against linezolid-resistant Staphylococcus aureus assessed as inhibition of bacterial growth incubated for 16 to 20 hrs by CLSI based broth liquid microdilution method; format: functional; conditions: time 16-20 hrs
Enterococcus faecalis = experiment: Antibacterial activity against linezolid-resistant Enterococcus faecalis assessed as inhibition of bacterial growth incubated for 16 to 20 hrs by CLSI based broth liquid microdilution method; format: functional; conditions: time 16-20 hrs
[5] = Microsomal stability in human liver microsomes assessed as elimination half life pretreated with compound upto 60 mins followed by NADPH addition and measured after 60 mins by LC/MS analysis; format: ADME, Microsome; conditions: liver microsomes, time < 120 min, read-out: beta t1/2
[6] = Microsomal stability in mouse liver microsomes assessed as elimination half life pretreated with compound upto 60 mins followed by NADPH addition and measured after 60 mins by LC/MS analysis; format: ADME, Microsome; conditions: liver microsomes, time < 120 min, read-out: beta t1/2
[7] = Microsomal stability in human liver microsomes assessed as intrinsic clearance pretreated with compound upto 60 mins followed by NADPH addition and measured after 60 mins by LC/MS analysis; format: ADME, Microsome; conditions: time < 120 min, read-out: CLH
[8] = Microsomal stability in monkey liver microsomes assessed as intrinsic clearance pretreated with compound upto 60 mins followed by NADPH addition and measured after 60 mins by LC/MS analysis; format: ADME, Macaca mulatta, Microsome; conditions: rhesus monkey, time < 120 min, read-out: CLH
[9] = Microsomal stability in dog liver microsomes assessed as intrinsic clearance pretreated with compound upto 60 mins followed by NADPH addition and measured after 60 mins by LC/MS analysis; format: ADME, Canis lupus familiaris, Microsome; conditions: liver microsomes, time < 120 min, read-out: CLH
[10] = Microsomal stability in human liver microsomes assessed as parent compound remaining pretreated with compound upto 60 mins followed by NADPH addition and measured after 60 mins by LC/MS analysis; format: ADME, Microsome; conditions: liver microsomes, time < 120 min, read-out: Stability
[11] = Microsomal stability in monkey liver microsomes assessed as parent compound remaining pretreated with compound upto 60 mins followed by NADPH addition and measured after 60 mins by LC/MS analysis; format: ADME, Macaca mulatta, Microsome; conditions: rhesus monkey, time < 120 min, read-out: Stability
[12] = Microsomal stability in dog liver microsomes assessed as parent compound remaining pretreated with compound upto 60 mins followed by NADPH addition and measured after 60 mins by LC/MS analysis; format: ADME, Canis lupus familiaris, Microsome; conditions: time < 120 min, read-out: Stability
[13] = Stability in rat plasma assessed as parent compound remaining at 37 degreeC measured upto 60 mins by HPLC analysis; format: ADME, cell-free; conditions: read-out: Stability
[14] = Stability in mouse plasma assessed as parent compound remaining at 37 degreeC measured upto 60 mins by HPLC analysis; format: ADME, cell-free; conditions: read-out: Stability
[15] = Stability in human plasma assessed as parent compound remaining at 25 degreeC measured upto 60 mins by HPLC analysis; format: ADME, cell-free; conditions: read-out: Stability
[16] = Stability in monkey plasma assessed as parent compound remaining at 25 degreeC measured upto 60 mins by HPLC analysis; format: ADME, cell-free, Macaca mulatta; conditions: rhesus monkey, read-out: Stability
[17] = Stability in dog plasma assessed as parent compound remaining at 25 degreeC measured upto 60 mins by HPLC analysis; format: ADME, cell-free, Canis lupus familiaris; conditions: read-out: Stability
[18] = Stability in rat plasma assessed as parent compound remaining at 25 degreeC measured upto 60 mins by HPLC analysis; format: ADME, cell-free; conditions: read-out: Stability
[19] = Stability in mouse plasma assessed as parent compound remaining at 25 degreeC measured upto 60 mins by HPLC analysis; format: ADME, cell-free; conditions: 1 h
[20] = Plasma protein binding in human incubated for 6 hrs by LC-MS/MS analysis; format: ADME, cell-free; conditions: read-out: PPB (converted)
[21] = Plasma protein binding in dog incubated for 6 hrs by LC-MS/MS analysis; format: ADME, cell-free, Canis lupus familiaris; conditions: read-out: PPB (converted)
[22] = Plasma protein binding in rat incubated for 6 hrs by LC-MS/MS analysis; format: ADME, cell-free; conditions: read-out: PPB (converted)
[23] = AUC (0 to t) in Sprague-Dawley rat at 1 mg/kg, iv measured upto 24 hrs by LC-MS analysis; format: ADME, organism-based; conditions: in vivo
[24] = Elimination half life in Sprague-Dawley rat at 1 mg/kg, iv measured upto 24 hrs by LC-MS analysis; format: ADME, organism-based; conditions: in vivo, read-out: beta t1/2 (converted)
[25] = Clearance in Sprague-Dawley rat at 1 mg/kg, iv measured upto 24 hrs by LC-MS analysis; format: ADME, organism-based; conditions: in vivo
[26] = Elimination half life in Sprague-Dawley rat at 10 mg/kg, IG measured upto 24 hrs by LC-MS analysis; format: ADME, organism-based; conditions: in vivo, po, read-out: beta t1/2 (converted)
[27] = Tmax in Sprague-Dawley rat at 10 mg/kg, IG measured upto 24 hrs by LC-MS analysis; format: ADME, organism-based; conditions: in vivo, po
[28] = Cmax in Sprague-Dawley rat at 10 mg/kg, IG measured upto 24 hrs by LC-MS analysis; format: ADME, organism-based; conditions: in vivo, po
[29] = AUC (0 to t) in Sprague-Dawley rat at 10 mg/kg, IG measured upto 24 hrs by LC-MS analysis; format: ADME, organism-based; conditions: in vivo, po
[30] = Half life in ICR mouse at 10 mg/kg, IG measured upto 24 hrs by LC-MS analysis; format: ADME, organism-based; conditions: in vivo, po
[31] = AUC (0 to t) in ICR mouse at 10 mg/kg, IG measured upto 24 hrs by LC-MS analysis; format: ADME, organism-based; conditions: in vivo, po
[32] = Cytotoxicity against human HepG2 cells incubated for 48 hrs by MTT assay; format: toxicity, cell-based
Cytochrome P450 2C9 = Cytochrome P450 2C9 (Homo sapiens, UniProt P11712); experiment: Inhibition of CYP2C9 in human liver microsomes using […] preincubated with compound for 5 mins followed by substrate addition and measured after 120 mins in presence of NADPH by LC-MS/MS analysis; format: ADME, Microsome
Sequence of Cytochrome P450 2C9 (P11712 whole entry): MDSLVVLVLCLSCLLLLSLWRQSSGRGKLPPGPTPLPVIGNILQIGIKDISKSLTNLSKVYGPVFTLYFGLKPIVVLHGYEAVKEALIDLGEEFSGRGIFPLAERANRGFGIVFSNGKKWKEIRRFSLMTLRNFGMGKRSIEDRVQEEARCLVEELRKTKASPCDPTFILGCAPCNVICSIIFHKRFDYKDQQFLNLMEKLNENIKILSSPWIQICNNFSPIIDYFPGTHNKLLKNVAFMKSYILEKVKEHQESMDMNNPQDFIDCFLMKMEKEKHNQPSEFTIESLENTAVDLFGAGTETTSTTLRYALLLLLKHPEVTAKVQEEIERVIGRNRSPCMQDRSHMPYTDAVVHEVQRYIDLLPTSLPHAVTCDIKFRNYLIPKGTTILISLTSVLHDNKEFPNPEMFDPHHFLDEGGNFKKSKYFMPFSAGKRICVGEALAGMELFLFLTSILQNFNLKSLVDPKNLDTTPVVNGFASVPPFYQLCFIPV

Cytochrome P450 2D6 = Cytochrome P450 2D6 (Homo sapiens, UniProt P10635); experiment: Inhibition of CYP2D6 in human liver microsomes […] preincubated with compound for 5 mins followed by substrate addition and measured after 120 mins in presence of NADPH by LC-MS/MS analysis; format: ADME, Microsome
Sequence of Cytochrome P450 2D6 (P10635 whole entry): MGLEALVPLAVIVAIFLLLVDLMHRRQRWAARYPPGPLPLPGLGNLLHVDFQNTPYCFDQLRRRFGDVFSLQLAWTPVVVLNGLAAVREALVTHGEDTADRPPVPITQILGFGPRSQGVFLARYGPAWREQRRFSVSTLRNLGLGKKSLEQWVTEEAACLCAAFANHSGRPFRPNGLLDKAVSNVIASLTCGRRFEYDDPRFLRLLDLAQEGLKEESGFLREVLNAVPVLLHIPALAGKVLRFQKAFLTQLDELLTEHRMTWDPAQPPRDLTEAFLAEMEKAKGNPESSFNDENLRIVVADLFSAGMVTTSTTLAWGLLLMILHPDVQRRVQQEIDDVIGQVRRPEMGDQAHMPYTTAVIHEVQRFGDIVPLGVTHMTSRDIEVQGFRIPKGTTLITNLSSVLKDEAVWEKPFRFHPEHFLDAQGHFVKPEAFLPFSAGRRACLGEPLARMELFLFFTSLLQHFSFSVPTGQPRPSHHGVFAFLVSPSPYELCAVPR

SMILES: O=C1O[C@@H](CO)CN1c1ccc(-c2ccc(/C=N/N3CCOCC3)nc2)c(F)c1
- MIC (Staphylococcus aureus [1]): 0.06 µg/mL (≈ 0.15 µM)
- MIC (Staphylococcus aureus [2]): 0.125 µg/mL (≈ 0.312 µM)
- MIC (Staphylococcus aureus [3]): 0.06 µg/mL (≈ 0.15 µM)
- MIC (Staphylococcus aureus [4]): 0.125 µg/mL (≈ 0.312 µM)
- MIC (Enterococcus faecalis): 0.5 µg/mL (≈ 1.25 µM)
- half-life [5]: 1.83 h
- half-life [6]: 12.2 h
- microsomal CLint [7]: 12.7 µL/min/mg
- microsomal CLint [8]: 3.25 µL/min/mg
- microsomal CLint [9]: 1.51 µL/min/mg
- remaining at 2 h [10]: 66.2%
- remaining at 2 h [11]: 93.3%
- remaining at 2 h [12]: 96.8%
- remaining at 1 h [13]: 103%
- remaining at 1 h [14]: 98.3%
- remaining at 1 h [15]: 102%
- remaining at 1 h [16]: 113%
- remaining at 1 h [17]: 107%
- remaining at 1 h [18]: 116%
- Stability [19]: 125%
- fraction unbound at 6 h [20]: 0.144
- fraction unbound at 6 h [21]: 0.169
- fraction unbound at 6 h [22]: 0.041
- AUC(0-t) at 24 h [23]: 1220 ng·h/mL
- half-life [24]: 0.8 h
- clearance [25]: 14 mL/min/kg
- half-life [26]: 1.49 h
- Tmax [27]: 1.33 h
- Cmax [28]: 2320 ng/mL
- AUC(0-t) at 24 h [29]: 8310 ng·h/mL
- half-life [30]: 2.85 h
- AUC(0-t) at 24 h [31]: 29300 ng·h/mL
- IC50 at 48 h [32]: > 30 µM
- IC50 (Cytochrome P450 2C9): > 30 µM
- IC50 (Cytochrome P450 2D6): > 30 µM
